{"source": "patent US5266588A", "about": "“Compound produced by a strain of microtetraspora having antibacterial and neuritogenic activity” (Bristol-Myers Squibb Company, priority 1992, dated 1993)", "key": {"[1]": {"settings": "literature table; cited from earlier work"}, "[2]": {"test": "Solubility", "assay_type": "physicochemical"}, "[3]": {"test_system": "S. typhi 901", "test": "Antibacterial activity (serial 2-fold dilution MIC)", "assay_type": "cell-based", "settings": "Salmonella enterica, 18 h, pH 7", "protocol": "(§1) Assay for the Antibacterial Activity\n(§2) The MIC's of BU-4514N against various test microorganisms were determined by the serial 2-fold dilution method after overnight incubation at 32° C. Nutrient agar medium (Difco) was used for Gram-positive and Gram-negative bacteria.\n(§3) Medium: Nutrient Agar, pH 7.0\n(§4) Inoculum size: 10^5 cells/ml\n(§5) Incubations: 32° C., 18 hr"}, "[4]": {"test_system": "K. pneumoniae PCI 602", "test": "Antibacterial activity (serial 2-fold dilution MIC)", "assay_type": "cell-based", "settings": "Klebsiella pneumoniae, PCI602; Nutrient Agar, pH 7.0; 10^5 cells/ml; 32° C., 18 hr", "protocol": "as §1, §2, §3, §4, §5"}, "[5]": {"test_system": "S. aureus FDA 209P JC-1", "test": "Antibacterial activity (serial 2-fold dilution MIC)", "assay_type": "cell-based", "settings": "Staphylococcus aureus, FDA209P; Nutrient Agar, pH 7.0; 10^5 cells/ml; 32° C., 18 hr", "protocol": "as §1, §2, §3, §4, §5"}, "[6]": {"test_system": "M. luteus PCI 1001", "test": "Antibacterial activity (serial 2-fold dilution MIC)", "assay_type": "cell-based", "settings": "Micrococcus luteus, PCI1001; Nutrient Agar, pH 7.0; 10^5 cells/ml; 32° C., 18 hr", "protocol": "as §1, §2, §3, §4, §5"}, "[7]": {"test_system": "C. fleundii GN 7391", "test": "Antibacterial activity (serial 2-fold dilution MIC)", "assay_type": "cell-based", "settings": "Nutrient Agar, pH 7.0; 10^5 cells/ml; 32° C., 18 hr", "protocol": "as §1, §2, §3, §4, §5"}, "[8]": {"test_system": "S. aureus Smith", "test": "Antibacterial activity (serial 2-fold dilution MIC)", "assay_type": "cell-based", "settings": "Staphylococcus aureus; Nutrient Agar, pH 7.0; 10^5 cells/ml; 32° C., 18 hr", "protocol": "as §1, §2, §3, §4, §5"}, "[9]": {"test_system": "S. aureus A15036 (MRSA)", "test": "Antibacterial activity (serial 2-fold dilution MIC)", "assay_type": "cell-based", "settings": "Staphylococcus aureus, Nutrient Agar, pH 7.0, 10^5 cells/ml, 32° C., 18 hr", "protocol": "as §1, §2, §3, §4, §5"}, "[10]": {"test_system": "P. aeruginosa A9843A", "test": "Antibacterial activity (serial 2-fold dilution MIC)", "assay_type": "cell-based", "settings": "Pseudomonas aeruginosa, 18 h, pH 7", "protocol": "as §1, §2, §3, §4, §5"}, "[11]": {"test_system": "B. subtilis PCI 219", "test": "Antibacterial activity (serial 2-fold dilution MIC)", "assay_type": "cell-based", "settings": "Bacillus subtilis, PCI219; Nutrient Agar, pH 7.0; 10^5 cells/ml; 32° C., 18 hr", "protocol": "as §1, §2, §3, §4, §5"}, "[12]": {"test_system": "E. coli K12", "test": "Antibacterial activity (serial 2-fold dilution MIC)", "assay_type": "cell-based", "settings": "Escherichia coli, Nutrient Agar, pH 7.0, 10^5 cells/ml, 32° C., 18 hr", "protocol": "as §1, §2, §3, §4, §5"}, "[13]": {"test_system": "E. coli NIHJ JC-2", "test": "Antibacterial activity (serial 2-fold dilution MIC)", "assay_type": "cell-based", "settings": "Escherichia coli, NIHJJC2; Nutrient Agar, pH 7.0; 10^5 cells/ml; 32° C., 18 hr", "protocol": "as §1, §2, §3, §4, §5"}, "[14]": {"test_system": "E. coli Juhl A15119", "test": "Antibacterial activity (serial 2-fold dilution MIC)", "assay_type": "cell-based", "settings": "Escherichia coli, JUHLA15119; Nutrient Agar, pH 7.0; 10^5 cells/ml; 32° C., 18 hr", "protocol": "as §1, §2, §3, §4, §5"}, "[15]": {"test_system": "Gram-positive bacteria", "test": "In vitro antibacterial activity against Gram-positive bacteria", "assay_type": "cell-based", "protocol": "as §1, §2"}, "[16]": {"test_system": "PC 12R cells", "test": "Assay for the neurite outgrowth (PC 12R cells pre-treated with 0.1 ng/ml NGF)", "assay_type": "cell-based, rat", "settings": "for No. of Neurites: neurites over 10 mm long on monitor", "protocol": "Assay for the Neurite Outgrowth\nThe PC 12R cell density was adjusted to 1×10^5 cells/ml and 180 μl aliquots of the cell suspension were added to assay wells in a 96 well microtiter plate (Suimitomo). […] For the positive controls, 5.0 ng/ml NGF was added to a well. As negative controls, PC 12R cells without NGF were also prepared. […] Then a 20 μl aliquot of a test sample at varied concentrations was added to the test well containing PC 12R cells pre-treated with 0.1 ng/ml NGF. After 24 hours' incubation, the medium was removed and the cells were fixed with 0.3% glutaraldehyde (Tokyo Kasei) in Dulbecco's phosphate buffered saline and stained with Harris hematoxylin solution (Merck).\nThe stained cells were observed under a phase-contrast microscope connected with a video camera-CRT system. PC 12R cells were magnified 500 times on the CRT monitor. The lengths of spikes of the negative control cells were measured in order to establish the standard length of a spike of the PC 12R cells."}, "[17]": {"test_system": "PC12 pheochromocytoma cells", "settings": "cited from earlier work"}, "[18]": {"test_system": "retrograde neuronal cell death; septohippocampal connections", "settings": "cited from earlier work"}, "[19]": {"test_system": "adrenal medullary autografts", "settings": "intraperitoneal infusion, Parkinson's disease; cited from earlier work"}, "[20]": {"test_system": "cholinergic neuron atrophy and spatial memory impairment", "settings": "aged rats; cited from earlier work"}, "[21]": {"settings": "1.6 μg/ml, with 0.1 ng/ml NGF, 24 h"}, "[22]": {"settings": "3.1 μg/ml, with 0.1 ng/ml NGF, 24 h"}, "[23]": {"settings": "6.3 μg/ml, with 0.1 ng/ml NGF, 24 h"}, "[24]": {"settings": "12.5 μg/ml, sum of 5 fields/well and 3 wells, with 0.1 ng/ml NGF, 24 h"}, "[25]": {"settings": "NGF 0.1 ng/ml (Running control)"}}, "note": "“Also recorded” adds a separate entry of the source.", "data": [{"compound": "C=C1/C(=C\\C=C2/CCC[C@]3(C)[C@@H]([C@H](C)CCCC(C)(C)O)CC[C@@H]23)C[C@@H](O)C[C@@H]1O", "note": "[1,25-Dihydroxy-vitamin D3]", "values": [{"measurement": "Note (reported NGF mimic activity)", "setting": "[1]", "value": "NGF inducer"}]}, {"compound": "CC1=CC2CC(C)CCC2C(C)(C(=O)C2=C(O)CNC2=O)C1CC(C)OC1CCC(N)C(C)O1", "note": "(stereo not shown) [BU-4514N]", "values": [{"measurement": "solubility", "setting": "[2]; acidic water", "value": "soluble"}, {"measurement": "solubility", "setting": "[2]; dimethylsulfoxide", "value": "soluble"}, {"measurement": "solubility", "setting": "[2]; methanol", "value": "soluble"}, {"measurement": "solubility", "setting": "[2]; ordinary organic solvents, such as chloroform, ethyl acetate and benzene", "value": "practically insoluble"}, {"measurement": "solubility", "setting": "[2]; water", "value": "practically insoluble"}, {"measurement": "MIC", "setting": "[3]", "value": "> 100", "unit": "µg/mL"}, {"measurement": "MIC", "setting": "[4]", "value": "> 100", "unit": "µg/mL"}, {"measurement": "MIC", "setting": "[5]", "value": 1.6, "unit": "µg/mL"}, {"measurement": "MIC", "setting": "[6]", "value": 1.6, "unit": "µg/mL"}, {"measurement": "MIC", "setting": "[7]", "value": "> 100", "unit": "µg/mL"}, {"measurement": "MIC", "setting": "[8]", "value": 3.1, "unit": "µg/mL"}, {"measurement": "MIC", "setting": "[9]", "value": 3.1, "unit": "µg/mL"}, {"measurement": "MIC", "setting": "[10]", "value": "> 100", "unit": "µg/mL"}, {"measurement": "MIC", "setting": "[11]", "value": 0.8, "unit": "µg/mL"}, {"measurement": "MIC", "setting": "[12]", "value": "> 100", "unit": "µg/mL"}, {"measurement": "MIC", "setting": "[13]", "value": "> 100", "unit": "µg/mL"}, {"measurement": "MIC", "setting": "[14]", "value": "> 100", "unit": "µg/mL"}, {"measurement": "in vitro antibacterial activity", "setting": "[15]", "value": "good in vitro antibacterial activity"}, {"measurement": "No. of Neurites", "setting": "[16]; [21]", "value": 2}, {"measurement": "No. of Cells", "setting": "[16]; [21]", "value": 1611}, {"measurement": "Ratio (No. of Neurites/No. of Cells)", "setting": "[16]; [21]", "value": 0.12, "unit": "%"}, {"measurement": "No. of Neurites", "setting": "[16]; [22]", "value": 25}, {"measurement": "No. of Cells", "setting": "[16]; [22]", "value": 1848}, {"measurement": "Ratio (No. of Neurites/No. of Cells)", "setting": "[16]; [22]", "value": 1.4, "unit": "%"}, {"measurement": "No. of Neurites", "setting": "[16]; [23]", "value": 149}, {"measurement": "No. of Cells", "setting": "[16]; [23]", "value": 1570}, {"measurement": "Ratio (No. of Neurites/No. of Cells)", "setting": "[16]; [23]", "value": 9.5, "unit": "%"}, {"measurement": "No. of Neurites", "setting": "[16]; [24]", "value": 244}, {"measurement": "No. of Cells", "setting": "[16]; [24]", "value": 1123}, {"measurement": "Ratio (No. of Neurites/No. of Cells)", "setting": "[16]; 12.5 μg/ml, with 0.1 ng/ml NGF, 24 h", "value": 21.7, "unit": "%"}, {"measurement": "neurite outgrowth in number and length", "setting": "[16]; 12.5 to 6.3 μg/ml, compared to the negative control cells", "value": "significantly induces the neurite outgrowth in number and length"}]}, {"compound": "CCCCCCCCCCCCCC(=O)O[C@@H]1[C@@H](C)[C@@]2(O)[C@@H](C=C(CO)C[C@]3(O)C(=O)C(C)=C[C@@H]23)[C@@H]2C(C)(C)[C@]12OC(C)=O", "note": "[Phorbol 12-myristate 13-acetate]", "values": [{"measurement": "Note (reported NGF mimic activity)", "setting": "[1]", "value": "NGF inducer"}]}, {"compound": "CC1=C(/C=C/C(C)=C/C=C/C(C)=C/C(=O)O)C(C)(C)CCC1", "note": "[Retinoic acid]", "values": [{"measurement": "Note (reported NGF mimic activity)", "setting": "[1]", "value": "NGF inducer"}]}, {"compound": "NGF: protein known to be essential for the development and maintenance of certain sympathetic and sensory neurons in the peripheral nervous system", "values": [{"measurement": "response of PC12 cells to NGF", "setting": "[17]", "value": "differentiate into sympathetic neuron-like cells; also recorded: differentiating into sympathetic neuron-like cells"}, {"measurement": "behavioral recovery", "setting": "[18]; after damage to the septohippocampal connections", "value": "promote behavioral recovery"}, {"measurement": "retrograde neuronal cell death", "setting": "[18]; intraventricular injections or infusions, young adult rats", "value": "prevent retrograde neuronal cell death"}, {"measurement": "support of adrenal medullary autografts", "setting": "[19]", "value": "supports adrenal medullary autografts"}, {"measurement": "No. of Cells", "setting": "[16]; [25]", "value": 1565}, {"measurement": "Ratio (No. of Neurites/No. of Cells)", "setting": "[16]; [25]", "value": 0.13, "unit": "%"}, {"measurement": "No. of Neurites", "setting": "[16]; [25]", "value": 2}, {"measurement": "No. of Cells", "setting": "[16]; NGF 5 ng/ml (Positive control)", "value": 1053}, {"measurement": "Ratio (No. of Neurites/No. of Cells)", "setting": "[16]; NGF 5 ng/ml (Positive control)", "value": 6.8, "unit": "%"}, {"measurement": "No. of Neurites", "setting": "[16]; NGF 5 ng/ml (Positive control)", "value": 72}, {"measurement": "sensitivity of PC 12R cells to NGF", "setting": "[16]; as high as", "value": 1, "unit": "ng/mL"}, {"measurement": "cholinergic neuron atrophy and spatial memory impairment", "setting": "[20]", "value": "ameliorate cholinergic neuron atrophy and spatial memory impairment"}]}]}
